Assay results from the supplement of paper PMC10307832.

Experiments:
Test in all cases: relative viability (nuclei count vs DMSO), 5 days (fraction); higher = more cells survive
[1] = compound: C1=CC=C(C(=C1)C2=CC=C(C=C2)C3=CSC4=C3C(=C(C(=O)N4)C#N)O)O + NC(=O)Nc1cc(-c2cccc(F)c2)sc1C(=O)N[C@H]1CCCNC1 [AZD7762] (partner 0.2 µM)
Summary of the method: (§1)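 Nuclei were stained with Hoechst during a one-step fixation (final 0.05% Triton X-100, 1% formaldehyde, 1 ug/ml Hoechst) carried out 5 days after dosing, then counted on 4× images. The cells, lung cancer lines in 1536-well plates, had been dosed by pin tool the day after seeding with one drug alone or a fixed anchor-drug dose plus five library-drug doses (not always all listed) in √10 steps. Relative viability is the nuclei count in treated wells divided by that in vehicle wells, and each value is the median of duplicate plates.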

[2] = compound: C1=CC=C(C(=C1)C2=CC=C(C=C2)C3=CSC4=C3C(=C(C(=O)N4)C#N)O)O + Nc1nc2[nH]cc(CCc3ccc(C(=O)N[C@@H](CCC(=O)O)C(=O)O)cc3)c2c(=O)[nH]1 [Pemetrexed] (partner 0.2 µM)
Summary of the method: as §1

[3] = compound: C1=CC=C(C(=C1)C2=CC=C(C=C2)C3=CSC4=C3C(=C(C(=O)N4)C#N)O)O + Nc1ncn([C@H]2C[C@H](O)[C@@H](CO)O2)c(=O)n1 [Decitabine] (partner 2 µM)
Summary of the method: as §1

[4] = compound: O=C(CCCCCCNC(=O)c1cnc(N(c2ccccc2)c2ccccc2)nc1)NO [Ricolinostat] + CC(=O)Nc1cccc(-n2c(=O)n(C3CC3)c(=O)c3c(Nc4ccc(I)cc4F)n(C)c(=O)c(C)c32)c1 [Trametinib] (partner 0.02 µM)
Summary of the method: as §1

Cell Line | relative viability ([1]; first compound 0.08 µM) | relative viability ([1]; first compound 0.253 µM) | relative viability ([1]; first compound 0.8 µM) | relative viability ([1]; first compound 2.53 µM) | relative viability ([1]; first compound 8 µM) | relative viability ([2]; first compound 0.08 µM) | relative viability ([2]; first compound 0.253 µM) | relative viability ([2]; first compound 0.8 µM) | relative viability ([2]; first compound 2.53 µM) | relative viability ([2]; first compound 8 µM) | relative viability ([3]; first compound 0.08 µM) | relative viability ([3]; first compound 0.253 µM) | relative viability ([3]; first compound 0.8 µM) | relative viability ([3]; first compound 2.53 µM) | relative viability ([3]; first compound 8 µM) | relative viability ([4]; first compound 0.08 µM) | relative viability ([4]; first compound 0.253 µM) | relative viability ([4]; first compound 0.8 µM) | relative viability ([4]; first compound 2.53 µM)
LCLC-97TM1 | 0.225 | 0.259 | 0.258 | 0.278 | 0.148 | 0.177 | 0.179 | 0.16 | 0.182 | 0.166 | 0.237 | 0.267 | 0.226 | 0.252 | 0.226 | 0.195 | 0.182 | 0.25 | 0.287
NCI-H1734 | 0.573 | 0.511 | 0.559 | 0.594 | 0.459 | 0.396 | 0.403 | 0.462 | 0.401 | 0.448 | 0.469 | 0.493 | 0.501 | 0.545 | 0.432 | 0.582 | 0.629 | 0.682 | 0.785
NCI-H661 | – | – | – | – | – | 0.834 | 1 | 0.933 | 0.937 | 0.85 | 0.532 | 0.559 | 0.538 | 0.558 | 0.436 | 0.498 | 0.569 | 0.592 | 0.568
SK-LU-1 | – | – | – | – | – | 0.933 | 0.943 | 0.918 | 1.03 | 0.806 | 0.506 | 0.572 | 0.593 | 0.575 | 0.497 | 0.476 | 0.52 | 0.475 | 0.396
LC-2-ad | 0.873 | 0.798 | 0.871 | 0.872 | 0.824 | 0.268 | 0.288 | 0.279 | 0.306 | 0.257 | 0.743 | 0.865 | 0.832 | 0.777 | 0.791 | 0.899 | 0.911 | 0.907 | 0.836
NCI-H1355 | 0.693 | 0.899 | 0.739 | 0.763 | 0.752 | 1.01 | 1.12 | 1.13 | 1.04 | 1.11 | 0.362 | 0.391 | 0.351 | 0.333 | 0.366 | 0.411 | 0.43 | 0.346 | 0.412
NCI-H727 | 0.569 | 0.541 | 0.603 | 0.543 | 0.434 | – | – | – | – | – | 0.815 | 0.932 | 0.79 | 0.843 | 0.81 | 0.383 | 0.416 | 0.412 | 0.355
UMC-11 | – | – | – | – | – | – | 0.577 | 0.878 | 0.83 | 0.628 | 0.668 | 1.02 | 0.495 | 0.477 | 0.57 | 0.644 | 0.684 | 0.623 | 0.265
CAL-12T | 0.671 | 0.653 | 0.571 | 0.615 | 0.648 | 0.958 | 1.23 | 1.24 | 1.43 | 1.33 | – | – | – | – | – | 0.266 | 0.32 | 0.456 | 0.395
NCI-H1650 | – | – | – | – | – | 0.339 | 0.359 | 0.461 | 0.33 | 0.32 | 0.456 | 0.535 | 0.496 | 0.384 | 0.367 | 0.791 | 0.583 | 0.525 | 0.43
SW 1573 | – | – | – | – | – | 0.61 | 0.982 | 0.788 | 0.851 | 0.728 | 0.447 | 0.536 | 0.552 | 0.468 | 0.425 | 0.468 | 0.55 | 0.593 | 0.596
NCI-H1703 | 0.113 | 0.147 | 0.111 | 0.15 | 0.148 | – | – | – | – | – | – | – | – | – | – | – | – | – | –
SK-MES-1 | – | – | – | – | – | 1.02 | 1.03 | 1.02 | 0.987 | 1.02 | 0.382 | 0.408 | 0.383 | 0.404 | 0.376 | 0.548 | 0.537 | 0.656 | 0.734
NCI-H2023 | – | – | – | – | – | 0.188 | 0.296 | 0.368 | 0.208 | 0.323 | 0.242 | 0.247 | 0.197 | 0.222 | 0.196 | 0.51 | 0.637 | 0.558 | 0.536
COR-L 105 | – | – | – | – | – | 0.948 | 1.16 | 1.1 | 1.11 | 1.15 | 0.715 | 0.684 | 0.793 | 0.664 | 0.564 | 0.376 | 0.471 | 0.547 | 0.543
NCI-H520 | – | – | – | – | – | 0.484 | 0.676 | 0.804 | 0.705 | 0.608 | 0.476 | 0.476 | 0.559 | 0.509 | 0.462 | – | 0.735 | 0.621 | 0.613
ABC-1 | 0.781 | 0.881 | 0.799 | 0.855 | 0.827 | – | – | – | – | – | 1.4 | 1.03 | 1.03 | 0.899 | 1.07 | – | – | – | –
NCI-H1563 | – | – | – | – | – | 0.64 | 0.688 | 0.774 | 0.746 | 0.783 | – | – | – | – | – | – | – | – | –
NCI-H2228 | – | – | – | – | – | 0.371 | 0.454 | 0.351 | 0.332 | 0.367 | – | – | – | – | – | 0.642 | 0.534 | 0.482 | 0.45
NCI-H2009 | – | – | – | – | – | 0.97 | 1.04 | 1.02 | 1.1 | 1.08 | 0.384 | 0.47 | 0.415 | 0.372 | 0.36 | 0.158 | 0.262 | 0.294 | 0.353
A549 | – | – | – | – | – | – | – | – | – | – | – | 0.315 | 0.207 | 0.306 | 0.211 | – | – | – | –
COR-L23 | – | – | – | – | – | 0.222 | 0.228 | 0.212 | 0.189 | 0.19 | 0.469 | 0.54 | 0.429 | 0.431 | 0.417 | 0.485 | 0.582 | 0.625 | 0.49
